Laboratory results as given in article PMC11233548 (Communications Biology, 2024).
pKd: −log10 of the molar value. Entries after “also recorded” stand apart in the source; their conditions may differ. Starred links: 1 amine or outer side, 2 acyl side, 3 side chain; linkers in the order of their positions; H or OH if unused. Primed or numbered codes have the meaning given here. No end group written: not given here. *: point of attachment. PEG5′ = linker from Fmoc-PEG5-OH (18-amino-4,7,10,13-tetraoxaoctadecanoic acid), O=C(CCOCCOCCOCCOCCCCCN[*:1])[*:2]; fluorescein = fluorescein label on the N-terminal amino group, attached via an aminohexanoic acid linker; Biotin = O=C1N[C@H]2[C@H](CS[C@H]2CCCCC(=O)*)N1; long linker = not defined here; Ahx = NCCCCCC(=O)O

Experiments:
GST = assay: Direct fluorescence polarization binding of F-L5UR to GST (control); conditions: 10 nM F-L5UR, n = 3
Method: For the direct binding assay, the GST-B-RBD, or GST, was 2-fold diluted in an assay buffer composed of 50 mM Tris HCl pH 7.4, 50 mM NaCl, 5 mM DTT, and 0.005% (v/v) Tween 20 in a black low volume, round bottom 384-well plate (Corning, #4514). Then 10 nM F-L5UR peptide was added to each well and incubated for 20 min at ~22 °C on a horizontal shaker. The fluorescence polarization measurement was performed on the Clariostar (BMG Labtech) plate reader, using a fluorescence polarization module (λexcitation 482 ± 8 nm and λemission 530 ± 20 nm). The milli fluorescence polarization, mP, was determined from the measured fluorescence intensities, calculated according to, mP=1000×Ih−Iv/Ih+Iv where Iv and Ih are the fluorescence emission intensities detected with vertical and horizontal polarization, respectively. The mP was plotted against the concentration of the GST-RBD and the KD value of the F-L5UR was calculated using a quadratic equation, y=Af+Ab−Af*Lt+KD+x−(Lt+KD+x)^2−4*Lt*x/2Lt

[1] = tested on: catalytic subunit of PI3Kα; assay: SNAP-tag mediated pull-down from HEK lysates, PI3Kα catalytic subunit; assay type: binding, human cell line HEK293-EBNA; conditions: lysates of Gal1-transfected HEK cells; n = 4
Method: (§1) For the pull-down of interactors of L5UR-SNAP and control constructs, HEK293 EBNA cells were plated on 10 cm dishes. For each dish, 5 µg of pDest305-CMV-hGal1 and pEF-L5UR-SNAP, pEF-mutL5UR-SNAP, or pEF-SNAP were transfected. Transfection was done at ≥70% confluency using 2 µL jetPRIME per 1 µg DNA transfected, according to the manufacturer’s instructions. After about 24 h, the growth medium was removed, cells were rinsed twice in cold PBS, and each dish was lysed in 1 mL lysis buffer, consisting of 20 mM HEPES pH 7.5, 4 mM β-mercaptoethanol, 0.05% Igepal, 1× Protease Inhibitor (Thermo Scientific, #A32955) and 1× PhosSTOP (Roche, #04 906 837 001). The cells were scraped and transferred to Eppendorf tubes, then incubated on ice for 30 min, with occasional mixing by inverting the tube. The lysate was cleared by centrifugation for 15 min at 4 °C and 16,363 rcf. Cleared lysate was transferred to a clean tube, 15 µL sample was withdrawn as “Input” for Western blot analysis, and 25 µL of SNAP-capture magnetic beads (New England Biolabs, #S9145S) suspension (diluted 1:1 in lysis buffer) was added. The samples were further incubated for 2 h at room temperature (20–25 °C) on a rotating wheel. […] The samples were resolved on 4–20% SDS-PAGE gels in Tris-Gly buffer and analyzed by Western blotting. […]

Gal1 [2] = assay: SNAP-tag mediated pull-down from HEK lysates, Gal1; assay type: binding, human cell line HEK293-EBNA; conditions: lysates of Gal1-transfected HEK cells
Method: as §1

H-RasG12V nanoclustering [3] = assay: H-RasG12V nanoclustering-BRET in HEK cells; assay type: cell-based, human; conditions: expression (48 h), donor:acceptor 1:5, n = 3; for reduction of H-RasG12V nanoclustering-BRET: co-transfection of 200 ng Gal1 plasmid, Fig. 3c
C-Raf = assay: SNAP-tag mediated pull-down from HEK lysates, C-Raf; assay type: binding, human cell line HEK293-EBNA; conditions: lysates of Gal1-transfected HEK cells; n = 4
Method: as §1

Gal1/B-RBD = Gal1/B-RBD (Homo sapiens, UniProt P15056); assay: Gal1/B-RBD BRET in HEK cells; assay type: cell-based; conditions: expression (48 h), donor:acceptor 1:10; HEK; n = 3
Sequence of Gal1/B-RBD (P15056 155-227): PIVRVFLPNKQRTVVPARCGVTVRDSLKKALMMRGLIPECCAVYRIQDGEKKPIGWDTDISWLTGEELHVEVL

B-Raf = assay: SNAP-tag mediated pull-down from HEK lysates, B-Raf; assay type: binding, human cell line HEK293-EBNA; conditions: lysates of Gal1-transfected HEK cells; n = 4
Method: as §1

RASSF7 = assay: SNAP-tag mediated pull-down from HEK lysates, RASSF7; assay type: binding, human cell line HEK293-EBNA; conditions: lysates of Gal1-transfected HEK cells; n = 4
Method: as §1

ASPP2 = assay: SNAP-tag mediated pull-down from HEK lysates, ASPP2; assay type: binding, human cell line HEK293-EBNA; conditions: lysates of Gal1-transfected HEK cells; n = 4
Method: as §1

H-RasG12V nanoclustering [4] = assay: Electron microscopy-based analysis of H-RasG12V nanoclustering in BHK cells; assay type: cell-based, baby hamster kidney (BHK) cells; conditions: membrane sheets of Gal1-expressing BHK cells; n = 15
From the text: To quantify the nanoclustering of a component integral to the plasma membrane (PM), the apical PM sheets of baby hamster kidney (BHK) cells expressing a GFP-tagged H-Ras construct were fixed with 4% (w/v) PFA and 0.1% (w/v) glutaraldehyde. GFP anchored to the PM sheets was probed with 4.5 nm gold particles pre-coupled to anti-GFP antibody. Following embedment with methyl cellulose, the PM sheets were imaged using transmission electron microscopy (JEOL JEM-1400). Using the coordinates of every gold particle, Ripley’s K-function calculated the extent of nanoclustering of gold particles within a selected 1 μm^2 PM area: K(r)=An^−2∑i≠jwij1(∥xi−xj∥≤r) Lr−r=Kr/π−r where n gold particles populate in an intact area of A; r is the length between 1 and 240 nm; || ^. || indicates Euclidean distance where 1(^.) = 1 if ||xi − xj|| ≤ r and 1(^.) = 0 if ||xi − xj|| > r; K(r) specifies the univariate K-function. wij^−1 is a parameter used for an unbiased edge correction and characterizes the proportion of the circumference of a circle that has the center at xi and radius ||xi-xj||. Monte Carlo simulations estimate the 99% confidence interval (99% C.I.), which is then used to linearly transform K(r) into L(r) − r. On a nanoclustering curve of L(r) − r vs. r, the peak L(r) − r value is used as summary statistics for nanoclustering and is termed as Lmax. […]

Gal1 [5] = conditions: residues 22–45 of L5UR, opposite side of the carbohydrate binding site of Gal1; ref 38 (Elantak et al.); cited from earlier work
From the text: (Supplementary Fig. 2a). […] We hypothesized that the 52-mer L5UR peptide, which was derived from a Gal1 interaction partner, could act as a Raf-RBD/Gal1-interface inhibitor. Its residues 22–45 were previously ... || page 9: Question 3-2. The authors measure the affinity of L5UR to BRAF GST-RBD using fluorescence polarization. The affinity is an increase is 40-fold over the affinity of this peptide to Gal1 – this is a significant enhancement, do the authors have an explanation for this? […] In the pull-downs containing both Gal1 and GST-RBD both proteins are pulled down to equal levels, again this is surprising as one would exp ...

H-RasG12V nanoclustering [6] = assay: FLIM-FRET H-RasG12V nanoclustering in HEK cells; assay type: cell-based, HEK cells; rat Gal1; conditions: donor:acceptor 1:3, expression (24 h), n = 3
Gal1/C-RBD = assay: FLIM-FRET Gal1/C-RBD interaction in HEK cells; assay type: cell-based, rat Gal1; C-RBD of human C-Raf; HEK cells; conditions: mGFP-Gal1 / mRFP-C-RBD 1:3, expression (24 h) of plasmid or compound, n = 3
GST-B-RBD = GST-B-RBD (Homo sapiens, UniProt P15056); assay: Pull-down with biotinylated L5UR, GST-B-RBD; assay type: binding; conditions: biotinylated L5UR 4 µM, proteins 2 µM; n = 3
Sequence of GST-B-RBD (P15056 155-227): as above
Method: (§2) Biotinylated L5UR (bio-L5UR) peptide was synthesized as described above with a PEG5-linker to link the biotin to the L5UR peptide. GST, GST-B-Raf-RBD (155–227), and His-Gal1 were prepared as described above. Each protein in the assay was used at 2 µM concentration, and the peptide was at 4 µM in a reaction of 150 µL. First, peptide and Gal1 were pre-incubated for 30 min at 37 °C, then GST-B-RBD or GST alone was added, and the reaction continued for another hour. Control reaction mixes contained DMSO-vehicle instead of the peptide. At the end of the reaction time, 10 µL of each sample was withdrawn for SDS-PAGE analysis as inputs. For pull-downs, 5 µL of the beads were taken per sample. To prepare the beads, an appropriate volume of the slurry was pipetted into 15 mL falcon tubes and centrifuged at 830×g for 1 min to remove the ethanol-containing supernatant. The falcon tube was topped up to 15 mL with distilled water and centrifuged for 1 min to remove water. This washing step was repeated three times. Finally, the beads were resuspended in distilled water so that the final bead volume was 4× diluted i.e., 20 µL were pipetted to each tube. […] The analysis was done by resolving the samples (8 µL of the input samples and 10 µL of the eluted material) on 4–20% gradient SDS-PAGE gels and analyzed by Western blotting. […]

Gal1 [7] = assay: Pull-down with biotinylated L5UR, Gal1; assay type: binding; conditions: biotinylated L5UR 4 µM, proteins 2 µM; n = 3
Method: as §2

Substance: F-L5UR: fluorescein attached to N-terminus amino group of L5UR via aminohexanoic acid linker ({fluorescein-Ahx}-LLRPTAASQSRALGPGAPGGSSRSSLRSRWGRFLLQRGSWTGPRCWPRGFQS)
- binding to GST alone (GST): no binding to GST alone; also recorded: negligible binding

Substance: L5UR-SNAP: genetic construct with SNAP-tag added via a long linker to the C-terminus of L5UR (LLRPTAASQSRALGPGAPGGSSRSSLRSRWGRFLLQRGSWTGPRCWPRGFQS-{long linker-SNAP‑tag}; reading uncertain)
- pull-down of catalytic subunit of PI3Kα [1]: pulled down
- pull-down of Gal1 (Gal1 [2]): does under those conditions not interact with Gal1
- reduction of H-RasG12V nanoclustering-BRET (H-RasG12V nanoclustering [3]): ~ 33%
- effect of construct expression on H-RasG12V nanoclustering-BRET (H-RasG12V nanoclustering [3]; with co-transfection of 200 ng Gal1 plasmid): decreased Gal1-enhanced H-RasG12V nanoclustering-BRET to a similar extent as the untagged L5UR
- pull-down of C-Raf (C-Raf): pulled down
- effect of construct expression on Gal1/B-RBD BRET (Gal1/B-RBD): dose-dependently decreased BRET between Gal1 and the B-RBD
- pull-down of B-Raf (B-Raf): pulled down
- pull-down of RASSF7 (RASSF7): as were its two RA-domain containing interaction partners, RASSF7 and RASSF9
- pull-down of ASPP2 (ASPP2): it was pulled down by L5UR-SNAP
- disruption of H-RasG12V nanoclustering (Lmax) (H-RasG12V nanoclustering [4]): The disruption of H-RasG12V nanoclustering specifically by L5UR-SNAP

Substance: Ac-LLRPTAASQSRALGPGAPGGSSRSSLRSRWGRFLLQRGSWTGPRCWPRGFQS-NH2 (N-terminus and C-terminus assumed) [L5UR]
- effect of construct expression on H-RasG12V nanoclustering-BRET without co-expression of Gal1 (H-RasG12V nanoclustering [3]; HEK cells comparatively devoid of Gal1): very similar effects even without co-expression of Gal1
- reduction of H-RasG12V nanoclustering-BRET (H-RasG12V nanoclustering [3]): ~ 33%
- pKd (Gal1 [5]): 3.51
- effect on H-RasG12V nanoclustering-FRET (H-RasG12V nanoclustering [6]; Gal1-augmented): decreased the Gal1-augmented H-RasG12V nanoclustering-FRET
- effect on H-RasG12V nanoclustering-FRET, N-Gal1 (H-RasG12V nanoclustering [6]; dimerization-deficient N-Gal1): had no additional effect
- effect on Gal1/C-RBD FRET (Gal1/C-RBD): decreased the FRET between mGFP-Gal1 and mRFP-C-RBD
- disruption of H-RasG12V nanoclustering (Lmax) (H-RasG12V nanoclustering [4]): disruption of H-RasG12V nanoclustering by L5UR- and L5UR-SNAP construct expression

Substance: bio-L5UR: Biotinylated L5UR with a PEG5-linker linking biotin to the L5UR peptide ({Biotin-PEG5′}-LLRPTAASQSRALGPGAPGGSSRSSLRSRWGRFLLQRGSWTGPRCWPRGFQS-NH2)
- pull-down of GST-B-RBD (GST-B-RBD): pulled down Gal1 and the GST-B-RBD independently from each other
- pull-down of Gal1 (Gal1 [7]): pulled down Gal1 and the GST-B-RBD independently from each other
